Columns and labels:
[1] = tested on: MOLT-4; test: Growth inhibition of human MOLT4 cells assessed as cell growth at 0.01 uM incubated for 48 hrs by sulforhodamine B assay relative to control; type: functional; conditions: MOLT-4, 48 h, read-out: Activity
[2] = tested on: OVCAR-8; test: Growth inhibition of human OVCAR8 cells assessed as cell growth at 0.01 uM incubated for 48 hrs by sulforhodamine B assay relative to control; type: functional; conditions: OVCAR-8, 48 h, read-out: Activity
[3] = tested on: SK-OV-3; test: Growth inhibition of human SKOV3 cells incubated for 48 hrs by sulforhodamine B assay; type: functional, cell-based; conditions: SK-OV-3, 48 h
[4] = tested on: SNB-19; test: Growth inhibition of human SNB19 cells incubated for 48 hrs by sulforhodamine B assay; type: functional, cell-based; conditions: SNB-19, 48 h
[5] = tested on: NCI-H522; test: Growth inhibition of human NCI-H522 cells assessed as cell growth at 0.1 uM incubated for 48 hrs by sulforhodamine B assay relative to control; type: functional; conditions: NCI-H522, 48 h, read-out: Activity
[6] = tested on: SW-620; test: Growth inhibition of human SW620 cells assessed as cell growth at 100 uM incubated for 48 hrs by sulforhodamine B assay relative to control; type: functional; conditions: SW-620, 48 h, read-out: Activity
[7] = tested on: SF-295; test: Growth inhibition of human SF295 cells assessed as cell growth at 1 uM incubated for 48 hrs by sulforhodamine B assay relative to control; type: functional; conditions: SF-295, 48 h, read-out: Activity
[8] = tested on: HT-29; test: Growth inhibition of human HT-29 cells assessed as cell growth at 0.1 uM incubated for 48 hrs by sulforhodamine B assay relative to control; type: functional; conditions: HT-29, 48 h, read-out: Activity
[9] = tested on: A549; test: Growth inhibition of human A549/ATCC cells assessed as cell growth at 0.1 uM incubated for 48 hrs by sulforhodamine B assay relative to control; type: functional; conditions: A549, 48 h, read-out: Activity
[10] = tested on: HOP-62; test: Growth inhibition of human HOP62 cells assessed as cell growth at 0.1 uM incubated for 48 hrs by sulforhodamine B assay relative to control; type: functional; conditions: HOP-62, 48 h, read-out: Activity
[11] = tested on: NCI-H460; test: Growth inhibition of human NCI-H460 cells assessed as cell growth at 0.01 uM incubated for 48 hrs by sulforhodamine B assay relative to control; type: functional; conditions: NCI-H460, 48 h, read-out: Activity
[12] = tested on: KM12; test: Growth inhibition of human KM12 cells incubated for 48 hrs by sulforhodamine B assay; type: functional, cell-based; conditions: KM12, 48 h
[13] = tested on: T47D; test: Growth inhibition of human T47D cells assessed as cell growth at 0.01 uM incubated for 48 hrs by sulforhodamine B assay relative to control; type: functional; conditions: read-out: Activity
[14] = tested on: HT-29; test: Growth inhibition of human HT-29 cells incubated for 48 hrs by sulforhodamine B assay; type: functional, cell-based; conditions: HT-29, 48 h
[15] = tested on: MDA-MB-231; test: Growth inhibition of human MDA-MB-231 cells assessed as cell growth at 0.1 uM incubated for 48 hrs by sulforhodamine B assay relative to control; type: functional; conditions: MDA-MB-231, 48 h, read-out: Activity
[16] = tested on: ACHN; test: Growth inhibition of human ACHN cells assessed as cell growth at 0.1 uM incubated for 48 hrs by sulforhodamine B assay relative to control; type: functional; conditions: read-out: Activity
[17] = tested on: UACC-257; test: Growth inhibition of human UACC257 cells assessed as cell growth at 100 uM incubated for 48 hrs by sulforhodamine B assay relative to control; type: functional; conditions: UACC-257, 48 h, read-out: Activity
[18] = tested on: NCI-H23; test: Growth inhibition of human NCI-H23 cells assessed as cell growth at 0.01 uM incubated for 48 hrs by sulforhodamine B assay relative to control; type: functional; conditions: NCI-H23, 48 h, read-out: Activity
[19] = tested on: HCT-15; test: Growth inhibition of human HCT15 cells assessed as cell growth at 1 uM incubated for 48 hrs by sulforhodamine B assay relative to control; type: functional; conditions: HCT-15, 48 h, read-out: Activity
[20] = tested on: ACHN; test: Growth inhibition of human ACHN cells assessed as cell growth at 0.01 uM incubated for 48 hrs by sulforhodamine B assay relative to control; type: functional; conditions: read-out: Activity
[21] = tested on: ACHN; test: Growth inhibition of human ACHN cells incubated for 48 hrs by sulforhodamine B assay; type: functional, cell-based
[22] = tested on: K562; test: Growth inhibition of human K562 cells assessed as cell growth at 100 uM incubated for 48 hrs by sulforhodamine B assay relative to control; type: functional; conditions: K562, 48 h, read-out: Activity
[23] = tested on: CCRF-CEM; test: Growth inhibition of human CCRF-CEM cells incubated for 48 hrs by sulforhodamine B assay; type: functional, cell-based
[24] = tested on: DU-145; test: Growth inhibition of human DU145 cells assessed as cell growth at 1 uM incubated for 48 hrs by sulforhodamine B assay relative to control; type: functional; conditions: DU-145, 48 h, read-out: Activity
[25] = tested on: SK-MEL-5; test: Growth inhibition of human SK-MEL-5 cells incubated for 48 hrs by sulforhodamine B assay; type: functional, cell-based; conditions: SK-MEL-5, 48 h
[26] = tested on: COLO 205; test: Growth inhibition of human COLO205 cells incubated for 48 hrs by sulforhodamine B assay; type: functional, cell-based; conditions: COLO 205, 48 h
[27] = read-out: LC50 (the source's name)
[28] = read-out: pLC50 (the source's name) (converted)

`O=C(Nc1cccc(-n2cc(-c3ccncc3)c(-c3cc(O)cc(Cl)c3)n2)c1)c1cc(C(F)(F)F)cc(C(F)(F)F)c1` gave a growth at 0.01 µM [1] of 99%, a growth at 0.01 µM [2] of 98% and a GI50 ([3]; read-out: GI50) of 1.08 µM. For the same molecule, the CC50 [3, 27] was over 100 µM, the TGI ([3]; read-out: TGI) was over 100 µM and the GI50 ([3]; read-out: pGI50 (converted)) was 10.7 µM. The CC50 [3, 28] was over 100 µM, the TGI ([3]; read-out: pTGI (converted)) was over 100 µM and the GI50 ([4]; read-out: GI50) was 7.03 µM. It also gave a CC50 [4, 27] of over 100 µM, a TGI ([4]; read-out: TGI) of over 100 µM and a GI50 ([4]; read-out: pGI50 (converted)) of 7.08 µM. It also gave a CC50 [4, 28] of over 100 µM, a TGI ([4]; read-out: pTGI (converted)) of over 100 µM and a growth at 0.1 µM [5] of 30%. The growth at 100 µM [6] was 13%, the growth at 1 µM [7] was 59% and the growth at 0.1 µM [8] was 91%. For the same molecule, the growth at 0.1 µM [9] was 95%, the growth at 0.1 µM [10] was 100% and the growth at 0.01 µM [11] was 101%. For the same molecule, the GI50 ([12]; read-out: GI50) was 1.96 µM, the CC50 [12, 27] was over 100 µM and the GI50 ([12]; read-out: pGI50 (converted)) was 1.95 µM. The CC50 [12, 28] was over 100 µM, the growth at 0.01 µM [13] was 102% and the GI50 ([14]; read-out: GI50) was 2.5 µM. It also gave a CC50 [14, 27] of over 100 µM, a TGI ([14]; read-out: TGI) of 37.7 µM and a GI50 ([14]; read-out: pGI50 (converted)) of 2.51 µM. For the same molecule, the CC50 [14, 28] was over 100 µM, the TGI ([14]; read-out: pTGI (converted)) was 38 µM and the growth at 0.1 µM [15] was 94%. For the same molecule, the growth at 0.1 µM [16] was 98%, the growth at 100 µM [17] was -10% and the growth at 0.01 µM [18] was 94%. The growth at 1 µM [19] was 79%, the growth at 0.01 µM [20] was 105% and the GI50 ([21]; read-out: GI50) was 4.96 µM. It also gave a CC50 [21, 27] of over 100 µM, a TGI ([21]; read-out: TGI) of over 100 µM and a GI50 ([21]; read-out: pGI50 (converted)) of 5.01 µM. The CC50 [21, 28] was over 100 µM, the TGI ([21]; read-out: pTGI (converted)) was over 100 µM and the growth at 100 µM [22] was 7%. It also gave a GI50 ([23]; read-out: GI50) of 2.58 µM, a CC50 [23, 27] of over 100 µM and a TGI ([23]; read-out: TGI) of over 100 µM. For the same molecule, the GI50 ([23]; read-out: pGI50 (converted)) was 2.69 µM, the CC50 [23, 28] was over 100 µM and the TGI ([23]; read-out: pTGI (converted)) was over 100 µM. For the same molecule, the growth at 1 µM [24] was 93%, the GI50 ([25]; read-out: GI50) was 2.51 µM and the CC50 [25, 27] was over 100 µM. For the same molecule, the TGI ([25]; read-out: TGI) was 86.7 µM, the GI50 ([25]; read-out: pGI50 (converted)) was 2.63 µM and the CC50 [25, 28] was over 100 µM. For the same molecule, the TGI ([25]; read-out: pTGI (converted)) was 8.91 µM, the GI50 ([26]; read-out: GI50) was 2.32 µM and the CC50 [26, 27] was over 100 µM. For the same molecule, the TGI ([26]; read-out: TGI) was 57.4 µM, the GI50 ([26]; read-out: pGI50 (converted)) was 2.34 µM and the CC50 [26, 28] was over 100 µM. The TGI ([26]; read-out: pTGI (converted)) was 5.75 µM.

Source: ChEMBL document CHEMBL4308841, “Synthesis, in vitro antiproliferative activity, and kinase inhibitory effects of pyrazole-containing diarylureas and diarylamides” (Eur J Med Chem, 2018)
